In patent EP1056700B1, “MEDICINAL USES OF PHENYLALKANOLS AND DERIVATES” (ZingoTX Pty Ltd, priority 1997, dated 1999):

Biological target: T1, 5-lipoxygenase (Rattus norvegicus, UniProt P12527)
T1 construct: 5-lipoxygenase activity from rat basophilic leukemia cells (RBL-1); host or cells: RBL-1 (rat basophilic leukemia)
Test: 5-lipoxygenase assay (MDS PANLABS), RBL-1 cells, 5-HETE radioimmunoassay
Format: biochemical
Conditions: arachidonic acid as substrate
Protocol: 3-hydroxy-1-(4-hydroxy-3-methoxyphenyl)dodecane [3.93] was tested at MDS PANLABS: Pharmacology Services (Taiwan) for 5-lipoxygenase activity from rat basophilic leukemia cells (RBL-1) with arachidonic acid as substrate. The inhibitory activity of the substance was quantitated, using radioimmunoassay, from the formation of 5-HETE. At 10 µM, the substance gave approximate 90% inhibition of 5-lipoxygenase activity.

T1 sequence (P12527 whole entry): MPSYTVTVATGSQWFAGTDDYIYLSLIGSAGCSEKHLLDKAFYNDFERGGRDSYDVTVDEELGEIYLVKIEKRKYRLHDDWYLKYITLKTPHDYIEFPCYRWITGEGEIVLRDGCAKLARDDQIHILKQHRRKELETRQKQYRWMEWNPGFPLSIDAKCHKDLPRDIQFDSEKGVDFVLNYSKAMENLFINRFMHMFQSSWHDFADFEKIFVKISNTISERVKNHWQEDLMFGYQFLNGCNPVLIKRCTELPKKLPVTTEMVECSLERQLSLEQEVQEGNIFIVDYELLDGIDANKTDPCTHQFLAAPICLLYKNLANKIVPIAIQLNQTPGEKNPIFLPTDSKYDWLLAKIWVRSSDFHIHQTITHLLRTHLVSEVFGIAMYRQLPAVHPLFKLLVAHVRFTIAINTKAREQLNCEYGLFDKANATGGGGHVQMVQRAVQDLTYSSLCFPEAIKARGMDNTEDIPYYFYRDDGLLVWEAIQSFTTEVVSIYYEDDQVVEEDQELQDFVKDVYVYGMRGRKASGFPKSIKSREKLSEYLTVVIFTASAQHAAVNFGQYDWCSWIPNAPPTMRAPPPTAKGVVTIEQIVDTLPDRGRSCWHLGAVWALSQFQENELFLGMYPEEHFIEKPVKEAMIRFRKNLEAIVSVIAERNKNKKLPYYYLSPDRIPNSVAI

`CCCCCCCCCC(O)CCc1ccc(O)c(OC)c1` (stereo not shown) [1-(4-hydroxy-3-methoxyphenyl)dodecan-3-ol] was tested. Which inhibition at 10 µM did it give?
The inhibition at 10 µM was about 90%.
